Values of other authors in PMC9516332 (Frontiers in Oncology, 2022).
Where two headings read alike, the source gives them in different places.

Legend:
[1] = molecular target: panel of 255 wild-type kinases (Homo sapiens, UniProt P43405); conditions: kinase SYK, 1 µmol/L single concentration, cited from earlier work
[2] = molecular target: panel of 255 wild-type kinases (Homo sapiens, UniProt Q13555); conditions: CaMK2γ kinase assay, 1 µmol/L single concentration, cited from earlier work
[3] = molecular target: panel of 255 wild-type kinases (Homo sapiens, UniProt P49841); conditions: kinase GSK3β, 1 µmol/L single concentration, cited from earlier work
[4] = molecular target: panel of 255 wild-type kinases (Homo sapiens, UniProt P22612); conditions: kinase PKACγ, 1 µmol/L single concentration, cited from earlier work
[5] = molecular target: panel of 255 wild-type kinases (Homo sapiens, UniProt P54646); conditions: AMPKα2/β1/γ1 kinase assay, 1 µmol/L single concentration, cited from earlier work
[6] = molecular target: panel of 255 wild-type kinases (Homo sapiens, UniProt Q14289); conditions: kinase PYK2, 1 µmol/L single concentration, cited from earlier work
[7] = molecular target: panel of 255 wild-type kinases (Homo sapiens, UniProt O75116); conditions: kinase ROCK2, 1 µmol/L single concentration, cited from earlier work
[8] = molecular target: panel of 255 wild-type kinases (Homo sapiens, UniProt Q13557); conditions: CaMK2δ kinase assay, 1 µmol/L single concentration, cited from earlier work
[9] = molecular target: panel of 255 wild-type kinases (Homo sapiens, UniProt P04629); conditions: kinase TRKA, 1 µmol/L single concentration, cited from earlier work
[10] = test system: panel of 255 wild-type kinases; conditions: cited from earlier work
[11] = molecular target: panel of 255 wild-type kinases (Homo sapiens, UniProt O75676); conditions: MSK2, 1 µmol/L single concentration, cited from earlier work
[12] = molecular target: panel of 255 wild-type kinases (Homo sapiens, UniProt Q16539); conditions: p38α, 1 µmol/L single concentration, cited from earlier work
[13] = molecular target: panel of 255 wild-type kinases (Homo sapiens, UniProt Q9UM73); conditions: ALK kinase assay, 1 µmol/L single concentration, cited from earlier work
[14] = molecular target: panel of 255 wild-type kinases (Homo sapiens, UniProt P22607); conditions: kinase FGFR3, 1 µmol/L single concentration, cited from earlier work
[15] = molecular target: panel of 255 wild-type kinases (Homo sapiens, UniProt P19525); conditions: kinase PKR, 1 µmol/L single concentration, cited from earlier work
[16] = molecular target: T1, panel of 255 wild-type kinases (Homo sapiens, UniProt Q08881); conditions: kinase ITK, 1 µmol/L single concentration, cited from earlier work
T1 sequence (Q08881 1-620): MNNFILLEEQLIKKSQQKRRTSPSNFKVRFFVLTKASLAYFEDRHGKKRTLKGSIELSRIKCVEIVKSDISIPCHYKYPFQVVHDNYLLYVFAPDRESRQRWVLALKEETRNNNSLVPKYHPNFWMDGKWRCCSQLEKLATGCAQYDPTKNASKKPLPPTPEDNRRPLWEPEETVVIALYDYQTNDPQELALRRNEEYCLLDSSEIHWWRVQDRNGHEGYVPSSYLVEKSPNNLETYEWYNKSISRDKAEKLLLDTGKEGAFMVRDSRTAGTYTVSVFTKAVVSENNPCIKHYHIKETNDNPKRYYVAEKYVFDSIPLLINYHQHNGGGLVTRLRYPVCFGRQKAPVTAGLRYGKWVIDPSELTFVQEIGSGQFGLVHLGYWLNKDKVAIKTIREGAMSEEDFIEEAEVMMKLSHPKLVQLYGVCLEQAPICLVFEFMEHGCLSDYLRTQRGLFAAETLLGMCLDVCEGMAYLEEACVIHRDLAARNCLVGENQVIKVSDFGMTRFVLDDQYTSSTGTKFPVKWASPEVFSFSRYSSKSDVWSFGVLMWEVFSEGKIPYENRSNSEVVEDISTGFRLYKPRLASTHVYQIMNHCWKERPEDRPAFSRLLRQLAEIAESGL

[17] = molecular target: panel of 255 wild-type kinases (Homo sapiens, UniProt Q00534); conditions: CDK6/CycD3 kinase assay, 1 µmol/L single concentration, cited from earlier work
[18] = molecular target: panel of 255 wild-type kinases (Homo sapiens, UniProt P11309); conditions: kinase PIM1, 1 µmol/L single concentration, cited from earlier work
[19] = ref DOI: 10.1158/1535-7163.MCT-18-0877
[20] = ref DOI: 10.1371/journal.pone.0092146

Compound	%-inhibition at 1 µmol/L, SYK [1, 19]	%-inhibition CaMK2γ [2, 19]	%-inhibition at 1 µmol/L, GSK3β [3, 19]	%-inhibition at 1 µmol/L, PKACγ [4, 19]	%-inhibition AMPKα2/β1/γ1 [5, 19]	%-inhibition at 1 µmol/L, PYK2 [6, 19]	%-inhibition at 1 µmol/L, ROCK2 [7, 19]	%-inhibition CaMK2δ [8, 19]	%-inhibition at 1 µmol/L, TRKA [9, 19]	%-inhibition, MSK2 [11, 19]	%-inhibition, p38α [12, 19]	%-inhibition ALK [13, 19]	%-inhibition at 1 µmol/L, FGFR3 [14, 19]	%-inhibition at 1 µmol/L, PKR [15, 19]	%-inhibition at 1 µmol/L, ITK [16, 19]	%-inhibition CDK6/CycD3 [17, 19]	%-inhibition at 1 µmol/L, PIM1 [18, 19]	also measured
O=C(c1ccc(F)c(F)c1Nc1ccc(I)cc1F)N1CC(O)([C@@H]2CCCCN2)C1 [cobimetinib]	-23%	-2.31%	-2.44%	4.37%	9%	2.5%	3.55%	1.1%	18%	-0.0695%	-5.49%	5%	5%	0.867%	4%	0.129%	1%	%-inhibition at 1 µmol/L, FYN [isoform b] ([10]; kinase FYN [isoform b], 1 µmol/L single concentration, ref DOI: 10.1158/1535-7163.MCT-18-0877): -0.687%; %-inhibition at 1 µmol/L, LYNb ([10]; kinase LYNb, 1 µmol/L single concentration, ref DOI: 10.1158/1535-7163.MCT-18-0877): 8%; %-inhibition at 1 µmol/L, PKCβ2 ([10]; kinase PKCβ2, 1 µmol/L single concentration, ref DOI: 10.1158/1535-7163.MCT-18-0877): -2%; %-inhibition at 1 µmol/L, SRM ([10]; kinase SRM, 1 µmol/L single concentration, ref DOI: 10.1158/1535-7163.MCT-18-0877): 1.37%
C=CC(=O)Nc1cc(Nc2nccc(-c3cn(C)c4ccccc34)n2)c(OC)cc1N(C)CCN(C)C [osimertinib]	-38%	4.25%	-4%	7.4%	11%	62%	6.54%	19%	27%	0.681%	-6%	99%	10%	6%	62%	0.62%	-4.4%	%-inhibition at 1 µmol/L, FYN [isoform b] [10]: 14%; %-inhibition at 1 µmol/L, LYNb [10]: 10%; %-inhibition at 1 µmol/L, PKCβ2 [10]: 17%; %-inhibition at 1 µmol/L, SRM [10]: 32%
CC(=O)Nc1cccc(-n2c(=O)n(C3CC3)c(=O)c3c(Nc4ccc(I)cc4F)n(C)c(=O)c(C)c32)c1 [trametinib]	–	–	–	–	–	–	–	–	–	–	–	–	–	–	–	–	–	%-inhibition at 1 µmol/L, SYK [1, 20]: -5%; %-inhibition CaMK2γ [2, 20]: 7%; %-inhibition at 1 µmol/L, GSK3β [3, 20]: -15%; %-inhibition at 1 µmol/L, PKACγ [4, 20]: 2%; %-inhibition AMPKα2/β1/γ1 [5, 20]: 1.21%; %-inhibition at 1 µmol/L, PYK2 [6, 20]: 2.72%; %-inhibition at 1 µmol/L, ROCK2 [7, 20]: 3%; %-inhibition CaMK2δ [8, 20]: -2.19%; %-inhibition at 1 µmol/L, TRKA [9, 20]: -1.17%; %-inhibition at 1 µmol/L, LYNb ([10]; kinase LYNb, 1 µmol/L single concentration, ref DOI: 10.1371/journal.pone.0092146): -2.58%; %-inhibition at 1 µmol/L, PKCβ2 ([10]; kinase PKCβ2, 1 µmol/L single concentration, ref DOI: 10.1371/journal.pone.0092146): -1.58%; %-inhibition at 1 µmol/L, SRM ([10]; kinase SRM, 1 µmol/L single concentration, ref DOI: 10.1371/journal.pone.0092146): -4%; %-inhibition, MSK2 [11, 20]: -4.75%; %-inhibition, p38α [12, 20]: -4%; %-inhibition ALK [13, 20]: -2.82%; %-inhibition at 1 µmol/L, FGFR3 [14, 20]: -5.68%; %-inhibition at 1 µmol/L, PKR [15, 20]: 1.13%; %-inhibition at 1 µmol/L, ITK [16, 20]: -7.56%; %-inhibition CDK6/CycD3 [17, 20]: -4.23%; %-inhibition at 1 µmol/L, PIM1 [18, 20]: 4.44%
